{"source": "patent US11578130B2", "about": "“Regulatable chimeric antigen receptor” (Novartis AG, priority 2013, dated 2023)", "key": {"[1]": {"test_system": "A/H1N1/California/07/2009 influenza", "assay": "Serum anti-influenza IgG and IgM levels before and 4 weeks post influenza vaccination", "format": "in vivo, human", "conditions": "RAD001 versus placebo cohorts, Kruskal-Wallis rank sum test", "method": "FIGS. 30A and 30B are graphic representations of IgG and IgM levels before and after influenza vaccination. Levels of anti-A/H1N1/California/07/2009 influenza IgG and IgM were measured in serum obtained from subjects before and 4 weeks post influenza vaccination."}, "[2]": {"test_system": "A/H3N2 strain A/Victoria/361/11", "assay": "Clinical trial: HI titers and seroconversion, heterologous A/H3N2 strain", "format": "in vivo, human"}, "[3]": {"assay": "Clinical trial: energy and exercise questionnaires one year after dosing", "format": "in vivo, human", "conditions": "0.5 mg daily dosing cohort"}, "[4]": {"test_system": "PD-1 positive CD4 and CD8 T cells", "assay": "Clinical trial: immunophenotyping of PBMC by flow cytometry", "format": "in vivo, human"}, "JNL cells": {"test_system": "JNL cells", "assay": "Single vector CD19 RCAR constructs in JNL cells, NFAT reporter activation by dimerization molecule", "format": "cell-based", "conditions": "nM to sub-nM doses", "excerpt": "The constructs and viral particles were made and tested essentially as described in Example 11. Viral particles were introduced into JNL cells and evaluated for activity essentially as described in Example 1 except that the target was CD19 (as opposed to EGFRviii).\nConstruct 143775 was introduced into cells and the affect of dimerization molecule concentration on activation evaluated essentially as described in Example 14."}}}
{"smiles": "CO[C@H]1C[C@@H]2CC[C@@H](C)[C@@](O)(O2)C(=O)C(=O)N2CCCC[C@H]2C(=O)O[C@H]([C@H](C)C[C@@H]2CC[C@@H](OCCO)[C@H](OC)C2)CC(=O)[C@H](C)/C=C(\\C)[C@@H](O)[C@@H](OC)C(=O)[C@H](C)C[C@H](C)/C=C/C=C/C=C/1C", "note": "[RAD001, (1R,9S,12S,15R,16E,18R,19R,21R,23S,24E,26E,28E,30S,32S,35R)-1,18-dihydroxy-12-{(1R)-2-[(1S,3R,4R)-4-(2-hydroxyethoxy)-3-methoxycyclohexyl]-1-methylethyl}-19,30-dimethoxy-15,17,21,23,29,35-hexamethyl-11,36-dioxa-4-aza-tricyclo[30.3.1.04,9]hexatriaconta-16,24,26,28-tetraene-2,3,10,14,20-pentaone]", "values": [{"measurement": "change from baseline to 4 weeks post vaccination in anti-H1N1 influenza IgG levels", "setting": "[1]", "result": "No significant difference"}, {"measurement": "change from baseline to 4 weeks post vaccination in anti-H1N1 influenza IgM levels", "setting": "[1]", "result": "No significant difference"}, {"measurement": "Percentage of subjects who seroconvert to heterologous strain 4 weeks after seasonal influenza vaccination, A/H3N2 strain: A/Victoria/361/11", "setting": "[2]; RAD001 0.5 mg daily", "result": 38, "unit": "%"}, {"measurement": "Percentage of subjects who seroconvert to heterologous strain 4 weeks after seasonal influenza vaccination, A/H3N2 strain: A/Victoria/361/11", "setting": "[2]; RAD001 5 mg weekly, * p-value < 0.05 versus placebo", "result": 39, "unit": "%*"}, {"measurement": "Percentage of subjects who seroconvert to heterologous strain 4 weeks after seasonal influenza vaccination, A/H3N2 strain: A/Victoria/361/11", "setting": "[2]; RAD001 20 mg weekly, * p-value < 0.05 versus placebo", "result": 40, "unit": "%*"}, {"measurement": "increase in the HI GMT ratios for the heterologous strain", "setting": "[2]; RAD001 as compared to placebo cohorts", "result": "higher"}, {"measurement": "H3N2 seroconversion rate, heterologous strain", "setting": "[2]; pooled RAD001 cohorts, versus 20% placebo (p=0.007)", "result": 39, "unit": "%"}, {"measurement": "self-reported energy and exercise ability compared to placebo", "setting": "[3]", "result": "increased energy and exercise ability"}, {"measurement": "percentage of PD-1 negative CD4 T cells", "setting": "[4]; RAD001 cohorts as compared to the placebo cohorts", "result": "increased"}, {"measurement": "percentage of CD4 PD-1 positive T cells", "setting": "[4]; week 6 and 12, all RAD001 cohorts", "result": "decreased from baseline"}, {"measurement": "percentage of CD8 PD-1 positive cells", "setting": "[4]; week 6 and 12, the two lower dose RAD001 cohorts", "result": "decreased from baseline"}, {"measurement": "activation of RCAR (Construct 143775) over dimerization molecule concentration", "setting": "JNL cells", "result": "effective at a broad range of concentrations"}]}
